Results as given in US8703701B2 (Indiana University Research and Technology Corporation, priority 2009, dated 2014).
Starred links: 1 amine or outer side, 2 acyl side, 3 side chain; linkers in the order of their positions; H or OH if unused. Non-standard residues stand in square brackets, D forms with d. Residues, ends and D or L forms follow the SMILES beside them. Groups on a side chain read outwards from the residue. *: point of attachment. γGlu = O=C(O)[C@H](CCC(=O)[*:2])N[*:1]; Palmitoyl = CCCCCCCCCCCCCCCC(=O)*; Myristoyl = CCCCCCCCCCCCCC(=O)*; Aib = CC(C)(N)C(=O)O

What was measured:
glucagon receptor = molecular target: T1, glucagon receptor (Homo sapiens, UniProt P47871); assay: cAMP induction, firefly luciferase reporter assay, glucagon receptor; type: cell-based; conditions: for Activity at Glucagon Receptor % Relative Activity: compared to native glucagon
T1 construct: expressed in transfected cells; host or cells: HEK293
Protocol: (§1) The ability of each peptide to induce cAMP was measured in a firefly luciferase-based reporter assay.
(§2) At the end of the incubation, 100 μL of LucLite luminescence substrate reagent (Perkin Elmer, Wellesley, Mass.) were added to each well. The plate was shaken briefly, incubated 10 min in the dark and light output was measured on MicroBeta-1450 liquid scintillation counter (Perkin-Elmer, Wellesley, Mass.).

GLP-1 receptor = molecular target: T2, GLP-1 receptor (Homo sapiens, UniProt P43220); assay: cAMP induction, firefly luciferase reporter assay, GLP-1 receptor; type: cell-based; conditions: for Activity at GLP-1 Receptor % Relative Activity: compared to native GLP-1
T2 construct: expressed in transfected cells; host or cells: HEK293
Protocol: as §1, §2

T1 sequence (P47871 26-477): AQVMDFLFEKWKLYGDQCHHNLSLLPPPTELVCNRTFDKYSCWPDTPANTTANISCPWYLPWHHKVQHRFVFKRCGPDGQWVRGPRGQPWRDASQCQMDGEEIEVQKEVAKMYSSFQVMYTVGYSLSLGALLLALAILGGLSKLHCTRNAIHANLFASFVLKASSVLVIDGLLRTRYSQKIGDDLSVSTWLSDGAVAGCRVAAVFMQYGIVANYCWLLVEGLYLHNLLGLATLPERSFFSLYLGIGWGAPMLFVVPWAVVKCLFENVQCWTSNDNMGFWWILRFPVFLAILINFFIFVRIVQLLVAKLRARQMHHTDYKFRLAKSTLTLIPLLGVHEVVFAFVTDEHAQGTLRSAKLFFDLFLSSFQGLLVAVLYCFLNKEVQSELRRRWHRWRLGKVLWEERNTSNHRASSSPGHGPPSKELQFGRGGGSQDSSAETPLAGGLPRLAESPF
T2 sequence (P43220 24-463): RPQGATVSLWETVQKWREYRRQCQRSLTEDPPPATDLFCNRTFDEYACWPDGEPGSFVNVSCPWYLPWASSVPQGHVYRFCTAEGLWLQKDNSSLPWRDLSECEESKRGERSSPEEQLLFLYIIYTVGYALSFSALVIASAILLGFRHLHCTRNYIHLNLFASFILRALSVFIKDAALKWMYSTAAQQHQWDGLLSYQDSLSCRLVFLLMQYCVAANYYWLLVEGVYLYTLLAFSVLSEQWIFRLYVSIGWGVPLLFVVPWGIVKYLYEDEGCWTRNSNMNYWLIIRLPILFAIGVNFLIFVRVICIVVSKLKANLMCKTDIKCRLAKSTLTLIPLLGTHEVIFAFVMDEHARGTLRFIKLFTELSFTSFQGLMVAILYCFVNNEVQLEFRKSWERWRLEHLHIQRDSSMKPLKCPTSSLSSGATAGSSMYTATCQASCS

## CC(C)C[C@H](NC(=O)[C@H](CC(C)C)NC(=O)[C@H](Cc1c[nH]c2ccccc12)NC(=O)[C@H](CS)NC(=O)[C@@H](NC(=O)[C@H](Cc1ccccc1)NC(=O)[C@H](CCC(=O)O)NC(=O)[C@H](CCCCN)NC(=O)[C@H](C)NC(=O)[C@H](CCCNC(=N)N)NC(=O)[C@H](CCCCN)NC(=O)C(C)(C)NC(=O)[C@H](CC(=O)O)NC(=O)[C@H](CC(C)C)NC(=O)[C@H](Cc1ccc(O)cc1)NC(=O)[C@H](CCCCN)NC(=O)[C@H](CO)NC(=O)[C@H](Cc1ccc(O)cc1)NC(=O)[C@H](CC(=O)O)NC(=O)[C@H](CO)NC(=O)[C@@H](NC(=O)[C@H](Cc1ccccc1)NC(=O)[C@@H](NC(=O)CNC(=O)[C@H](CCC(N)=O)NC(=O)[C@@H](CO)NC(=O)[C@@H](N)Cc1c[nH]cn1)[C@@H](C)O)[C@@H](C)O)C(C)C)C(=O)N[C@@H](CC(=O)O)C(=O)NCC(=O)NCC(=O)N1CCC[C@H]1C(=O)N[C@@H](CO)C(=O)N[C@@H](CO)C(=O)NCC(=O)N[C@@H](C)C(=O)N1CCC[C@H]1C(=O)N1CCC[C@H]1C(=O)N1CCC[C@H]1C(=O)N[C@@H](CO)C(N)=O [compound 60] (H-H[dS]QGTFTSDYSKYLD[Aib]KRAKEFVCWLLDGGPSSGAPPPS-NH2; N-terminus assumed)
Glucagon receptor; Activity at Glucagon Receptor EC50 (nM), Table 2B
  EC50: 0.006 nM
Glucagon receptor; Table 2B
  Activity at Glucagon Receptor % Relative Activity: 257%
GLP-1 receptor; Table 2B
  Activity at GLP-1 Receptor % Relative Activity: 19%

## CCCCCCCCCCCCCC(=O)N[C@@H](CCC(=O)N[C@@H](CCC(=O)NCCCC[C@H](NC(=O)[C@H](CC(=O)O)NC(=O)[C@H](CO)NC(=O)[C@@H](NC(=O)[C@H](Cc1ccccc1)NC(=O)[C@@H](NC(=O)CNC(=O)[C@H](CCC(N)=O)NC(=O)C(C)(C)NC(=O)[C@@H](N)Cc1c[nH]cn1)[C@@H](C)O)[C@@H](C)O)C(=O)N[C@@H](CO)C(=O)N[C@@H](CCCCN)C(=O)N[C@@H](Cc1ccc(O)cc1)C(=O)N[C@@H](CC(C)C)C(=O)N[C@@H](CC(=O)O)C(=O)NC(C)(C)C(=O)N[C@@H](CCCNC(=N)N)C(=O)N[C@@H](C)C(=O)N[C@@H](C)C(=O)N[C@@H](CCC(N)=O)C(=O)N[C@@H](CC(=O)O)C(=O)N[C@@H](Cc1ccccc1)C(=O)N[C@H](C(=O)N[C@@H](CCC(N)=O)C(=O)N[C@@H](Cc1c[nH]c2ccccc12)C(=O)N[C@@H](CC(C)C)C(=O)N[C@@H](CCSC)C(=O)N[C@@H](CC(=O)O)C(=O)N[C@H](C(N)=O)[C@@H](C)O)C(C)C)C(=O)O)C(=O)O [compound 70] (H-H[Aib]QGTFTSDK([γGlu-γGlu-Myristoyl])SKYLD[Aib]RAAQDFVQWLMDT-NH2; N-terminus assumed)
Glucagon receptor; Activity at Glucagon Receptor EC50 [pM], Table 3B
  EC50: 0.006 nM
Glucagon receptor; Table 3B
  Activity at Glucagon Receptor % Relative Activity: 709%
GLP-1 receptor; Activity at GLP-1 Receptor EC50 [pM], Table 3B
  EC50: 4 pM
GLP-1 receptor; Table 3B
  Activity at GLP-1 Receptor % Relative Activity: 500%

## CCCCCCCCCCCCCCCC(=O)N[C@@H](CCC(=O)NCCCC[C@H](NC(=O)[C@H](CC(=O)O)NC(=O)[C@H](CO)NC(=O)[C@@H](NC(=O)[C@H](Cc1ccccc1)NC(=O)[C@@H](NC(=O)CNC(=O)[C@H](CCC(N)=O)NC(=O)[C@@H](C)NC(=O)[C@@H](N)Cc1c[nH]cn1)[C@@H](C)O)[C@@H](C)O)C(=O)N[C@@H](CO)C(=O)N[C@@H](CCCCN)C(=O)N[C@@H](Cc1ccc(O)cc1)C(=O)N[C@@H](CC(C)C)C(=O)N[C@@H](CC(=O)O)C(=O)N[C@@H](CCC(=O)O)C(=O)N[C@@H](CCCNC(=N)N)C(=O)N[C@@H](C)C(=O)N[C@@H](C)C(=O)N[C@@H](CCC(N)=O)C(=O)N[C@@H](CC(=O)O)C(=O)N[C@@H](Cc1ccccc1)C(=O)N[C@H](C(=O)N[C@@H](CS)C(=O)N[C@@H](Cc1c[nH]c2ccccc12)C(=O)N[C@@H](CC(C)C)C(=O)N[C@@H](CC(C)C)C(=O)N[C@@H](CC(=O)O)C(=O)N[C@H](C(N)=O)[C@@H](C)O)C(C)C)C(=O)O [compound 59]
Glucagon receptor; Table 6
  Activity at Glucagon Receptor % Relative Activity: 490%
GLP-1 receptor; Activity at GLP-1 Receptor EC50 [nM], Table 6
  EC50: 19 pM
GLP-1 receptor; Table 6
  Activity at GLP-1 Receptor % Relative Activity: 484%

## CCCCCCCCCCCCCCCC(=O)N[C@@H](CCC(=O)NCCCC[C@H](NC(=O)[C@H](CC(=O)O)NC(=O)[C@H](CO)NC(=O)[C@@H](NC(=O)[C@H](Cc1ccccc1)NC(=O)[C@@H](NC(=O)CNC(=O)[C@H](CCC(N)=O)NC(=O)[C@@H](CO)NC(=O)[C@@H](N)Cc1c[nH]cn1)[C@@H](C)O)[C@@H](C)O)C(=O)N[C@@H](CO)C(=O)N[C@@H](CCCCN)C(=O)N[C@@H](Cc1ccc(O)cc1)C(=O)N[C@@H](CC(C)C)C(=O)N[C@@H](CC(=O)O)C(=O)N[C@@H](CCC(=O)O)C(=O)N[C@@H](CCC(N)=O)C(=O)N[C@@H](C)C(=O)N[C@@H](C)C(=O)N[C@@H](CCCCN)C(=O)N[C@@H](CCC(=O)O)C(=O)N[C@@H](Cc1ccccc1)C(=O)N[C@H](C(=O)N[C@@H](CS)C(=O)N[C@@H](Cc1c[nH]c2ccccc12)C(=O)N[C@@H](CC(C)C)C(=O)N[C@@H](CC(C)C)C(=O)N[C@@H](CC(=O)O)C(=O)N[C@@H](CCC(=O)O)C(N)=O)[C@@H](C)CC)C(=O)O [compound 82] (H-H[dS]QGTFTSDK([γGlu-Palmitoyl])SKYLDEQAAKEFICWLLDE-NH2; N-terminus assumed)
Glucagon receptor; Table 3C
  Activity at Glucagon Receptor % Relative Activity: 121%
GLP-1 receptor; Activity at GLP-1 Receptor EC50 [nM], Table 3C
  EC50: 20 pM
GLP-1 receptor; Table 3C
  Activity at GLP-1 Receptor % Relative Activity: 345%

## CCCCCCCCCCCCCCCC(=O)N[C@@H](CCC(=O)N[C@@H](CCC(=O)NCCCC[C@H](NC(=O)[C@H](CC(=O)O)NC(=O)[C@H](CO)NC(=O)[C@@H](NC(=O)[C@H](Cc1ccccc1)NC(=O)[C@@H](NC(=O)CNC(=O)[C@H](CCC(N)=O)NC(=O)[C@@H](CO)NC(=O)[C@@H](N)Cc1c[nH]cn1)[C@@H](C)O)[C@@H](C)O)C(=O)N[C@@H](CO)C(=O)N[C@@H](CCCCN)C(=O)N[C@@H](Cc1ccc(O)cc1)C(=O)N[C@@H](CC(C)C)C(=O)N[C@@H](CC(=O)O)C(=O)NC(C)(C)C(=O)N[C@@H](CCCCN)C(=O)N[C@@H](CCCNC(=N)N)C(=O)N[C@@H](C)C(=O)N[C@@H](CCCCN)C(=O)N[C@@H](CCC(=O)O)C(=O)N[C@@H](Cc1ccccc1)C(=O)N[C@H](C(=O)N[C@@H](CS)C(=O)N[C@@H](Cc1c[nH]c2ccccc12)C(=O)N[C@@H](CC(C)C)C(=O)N[C@@H](CC(C)C)C(=O)N[C@@H](CC(=O)O)C(=O)N[C@H](C(N)=O)[C@@H](C)O)C(C)C)C(=O)O)C(=O)O [compound 63] (H-H[dS]QGTFTSDK([γGlu-γGlu-Palmitoyl])SKYLD[Aib]KRAKEFVCWLLDT-NH2; N-terminus assumed)
Glucagon receptor; Table 2B
  Activity at Glucagon Receptor % Relative Activity: 115%
GLP-1 receptor; Activity at GLP-1 Receptor EC50 (nM), Table 2B
  EC50: 20 pM
GLP-1 receptor; Table 2B
  Activity at GLP-1 Receptor % Relative Activity: 345%

## CCCCCCCCCCCCCCCC(=O)N[C@@H](CCC(=O)N[C@@H](CCC(=O)NCCCC[C@H](NC(=O)[C@H](CC(=O)O)NC(=O)[C@H](CO)NC(=O)[C@@H](NC(=O)[C@H](Cc1ccccc1)NC(=O)[C@@H](NC(=O)CNC(=O)[C@H](CCC(N)=O)NC(=O)[C@@H](CO)NC(=O)[C@@H](N)Cc1c[nH]cn1)[C@@H](C)O)[C@@H](C)O)C(=O)N[C@@H](CO)C(=O)N[C@@H](CCCCN)C(=O)N[C@@H](Cc1ccc(O)cc1)C(=O)N[C@@H](CC(C)C)C(=O)N[C@@H](CC(=O)O)C(=O)NC(C)(C)C(=O)N[C@@H](CCCNC(=N)N)C(=O)N[C@@H](C)C(=O)N[C@@H](C)C(=O)N[C@@H](CCC(N)=O)C(=O)N[C@@H](CC(=O)O)C(=O)N[C@@H](Cc1ccccc1)C(=O)N[C@H](C(=O)N[C@@H](CCC(N)=O)C(=O)N[C@@H](Cc1c[nH]c2ccccc12)C(=O)N[C@@H](CC(C)C)C(=O)N[C@@H](CCSC)C(=O)N[C@@H](CC(=O)O)C(=O)N[C@H](C(N)=O)[C@@H](C)O)C(C)C)C(=O)O)C(=O)O [compound 44] (H-H[dS]QGTFTSDK([γGlu-γGlu-Palmitoyl])SKYLD[Aib]RAAQDFVQWLMDT-NH2; N-terminus assumed)
Glucagon receptor; Table 3A
  Activity at Glucagon Receptor % Relative Activity: 661%
GLP-1 receptor; Table 3A
  Activity at GLP-1 Receptor % Relative Activity: 524%

## CCCCCCCCCCCCCCCC(=O)N[C@@H](CCC(=O)N[C@@H](CCC(=O)NCCCC[C@H](NC(=O)[C@H](CC(=O)O)NC(=O)[C@H](CO)NC(=O)[C@@H](NC(=O)[C@H](Cc1ccccc1)NC(=O)[C@@H](NC(=O)CNC(=O)[C@H](CCC(N)=O)NC(=O)C(C)(C)NC(=O)[C@@H](N)Cc1c[nH]cn1)[C@@H](C)O)[C@@H](C)CC)C(=O)N[C@@H](CO)C(=O)N[C@@H](CCCCN)C(=O)N[C@@H](Cc1ccc(O)cc1)C(=O)N[C@@H](CC(C)C)C(=O)N[C@@H](CC(=O)O)C(=O)NC(C)(C)C(=O)N[C@@H](CCCNC(=N)N)C(=O)N[C@@H](C)C(=O)N[C@@H](C)C(=O)N[C@@H](CCC(N)=O)C(=O)N[C@@H](CC(=O)O)C(=O)N[C@@H](Cc1ccccc1)C(=O)N[C@H](C(=O)N[C@@H](CCC(N)=O)C(=O)N[C@@H](Cc1c[nH]c2ccccc12)C(=O)N[C@@H](CC(C)C)C(=O)N[C@@H](CCSC)C(=O)N[C@@H](CC(=O)O)C(=O)N[C@H](C(=O)O)[C@@H](C)O)C(C)C)C(=O)O)C(=O)O [compound 46]
Glucagon receptor; Table 3A
  Activity at Glucagon Receptor % Relative Activity: 2800%
GLP-1 receptor; Table 3A
  Activity at GLP-1 Receptor % Relative Activity: 4.9%

## CSCC[C@H](NC(=O)[C@H](CC(C)C)NC(=O)[C@H](Cc1c[nH]c2ccccc12)NC(=O)[C@H](CCC(N)=O)NC(=O)[C@@H](NC(=O)[C@H](Cc1ccccc1)NC(=O)[C@H](CCC(=O)O)NC(=O)[C@H](CCCCN)NC(=O)[C@H](C)NC(=O)[C@H](CCCNC(=N)N)NC(=O)[C@H](CCCCN)NC(=O)[C@H](CCC(=O)O)NC(=O)[C@H](CC(=O)O)NC(=O)[C@H](CC(C)C)NC(=O)[C@H](Cc1ccc(O)cc1)NC(=O)[C@H](CCCCN)NC(=O)[C@H](CO)NC(=O)[C@H](Cc1ccc(O)cc1)NC(=O)[C@H](CC(=O)O)NC(=O)[C@H](CO)NC(=O)[C@@H](NC(=O)[C@H](Cc1ccccc1)NC(=O)[C@@H](NC(=O)CNC(=O)[C@H](CCC(N)=O)NC(=O)[C@H](CO)NC(=O)[C@@H](N)Cc1c[nH]cn1)[C@@H](C)O)[C@@H](C)O)C(C)C)C(=O)N[C@@H](CC(N)=O)C(=O)N[C@H](C(N)=O)[C@@H](C)O [compound 65]
Glucagon receptor; Table 2B
  Activity at Glucagon Receptor % Relative Activity: 264%
GLP-1 receptor; Table 2B
  Activity at GLP-1 Receptor % Relative Activity: 64%
